In patent publication US8877748B2, “Heterocyclic fused anthraquinone derivatives, manufacturing method and pharmaceutical composition using thereof” (National Defense Medical Center, priority 2012, dated 2014):
Where two headings read alike, the source gives them in different places.

Legend:
UO-31 = experiment: NCI one-dose screening, renal cancer UO-31; type: cell-based, human; details: UO-31, 10 μM
[1] = test system: PC-3 prostate cancer cell line; experiment: SRB assay cell viability, PC-3 prostate cancer cell line; type: cell-based, human; details: PC-3 prostate cancer cell line, Table II prints no unit, μM printed, read-out: SRB assay: 50% inhibition of cancer cell proliferation of sample concentration (IC50) of PC-3 prostate cancer cell line
LOX IMVI = experiment: NCI one-dose screening, melanoma LOX IMVI; type: cell-based, human; details: LOX IMVI
BT-549 = experiment: NCI one-dose screening, breast cancer BT-549; type: cell-based, human; details: BT-549, 10 μM
SF-295 = experiment: NCI one-dose screening, CNS cancer SF-295; type: cell-based, human; details: SF-295, 10 μM
T-47D = experiment: NCI one-dose screening, breast cancer T-47D; type: cell-based, human; details: T-47D
MOLT-4 = experiment: NCI one-dose screening, leukemia MOLT-4; type: cell-based, human; details: MOLT-4, 10 μM
PRMI-8226 cell line = experiment: NCI one-dose screening, leukemia PRMI-8226; type: cell-based, human; details: RPMI-8226, 10 μM
CCRF-CEM = experiment: NCI screening platform one-dose single concentration screening, leukemia CCRF-CEM; type: cell-based, human; details: CCRF-CEM
HOP-92 = experiment: NCI one-dose screening, non-small cell lung cancer HOP-92; type: cell-based, human; details: HOP-92, 10 μM
HOP-62 = experiment: NCI one-dose screening, non-small cell lung cancer HOP-62; type: cell-based, human; details: HOP-62, 10 μM
OVCAR-5 = experiment: NCI one-dose screening, ovarian cancer OVCAR-5; type: cell-based, human; details: OVCAR-5, 10 μM
SR = experiment: NCI one-dose screening, leukemia SR; type: cell-based, human; details: SR
NCI-H322M = experiment: NCI one-dose screening, non-small cell lung cancer NCI-H322M; type: cell-based, human
SF-539 = experiment: NCI one-dose screening, CNS cancer SF-539; type: cell-based, human; details: SF-539, 10 μM
[2] = Non-small cell lung cancer, NCI-H322M, 10 μM

Row | SMILES | Growth Percent (10 μM) (UO-31) | IC50 [1] | Growth Percent (10 μM) (LOX IMVI) | Growth Percent (10 μM) (BT-549) | Growth Percent (10 μM) (SF-295) | Growth Percent (10 μM) (T-47D) | Growth Percent (10 μM) (MOLT-4) | Growth Percent (10 μM) (PRMI-8226 cell line) | Growth Percent (10 μM) (CCRF-CEM) | Growth Percent (10 μM) (HOP-92) | Growth Percent (10 μM) (HOP-62) | Growth Percent (10 μM) (OVCAR-5) | Growth Percent (10 μM) (SR) | Growth Percent (10 μM) (NCI-H322M) | Growth Percent (10 μM) (SF-539) | IC50 ([1]; Homo sapiens) | Growth Percent (10 μM) (NCI-H322M; [2]) | melting point
1 | CN(C)CCNc1cc2c(c3nsnc13)C(=O)c1ccccc1C2=O [C8] | −28.47% | 0.4 µM | −90.91% | −99.43% | −55.73% | 12.90% | −41.28% | −29.81% | −12.55% | −25.30% | −67.97% | −76.97% | −49.98% | −56.32% | −82.05% |  |  | 
2 | O=C1c2ccccc2C(=O)c2c1cc(N1CCCC1)c1nsnc21 [C7, 4-(pyrrolidine-1-yl)anthra-[2,1-c][1,2,5] thiadiazol-6,11-dione] | 41.64% |  | 69.55% | 86.83% | 87.02% | 78.19% | 92.84% | 76.16% | 86.62% |  | 79.16% | 111.75% | 84.23% |  | 97.27% | > 15 µM | 82.34% | 
3 | CC(C)Sc1cc2c(c3nsnc13)C(=O)c1ccccc1C2=O [C18, 4-(isopropylthio)anthra[2,1-c][1,2,5] thiadiazol-6,11-dione] | −28.43% |  | −21.59% | 10.84% | −16.57% | −24.37% | −54.56% | −38.03% | −45.05% |  | 13.18% | −27.85% | −47.97% |  | −47.01% | 1.15 µM | −0.80% | 193 to 194 °C
4 | Cc1ccc(Nc2cc3c(c4nsnc24)C(=O)c2ccccc2C3=O)cc1 [C64, 4-(p-tolylamino)anthra[2,1-c][1,2,5] thiadiazol-6,11-dione] | 56.97% |  | 27.05% | 76.36% | 75.76% | 64.48% | 12.86% | 21.59% | 59.59% |  | 65.10% | 109.85% | 26.12% |  | 70.48% | 0.84 µM | 94.85% | 
